Reference: article doi:10.1101/2024.08.19.608619, “Discovery of potent SARS-CoV-2 nsp3 macrodomain inhibitors uncovers lack of translation to cellular antiviral response” (bioRxiv, 2024)
Where two headings read alike, the source gives them in different places.

Tests used:
SARS-CoV-2 nsp3-mac1 [1] = biological target: T1, SARS-CoV-2 nsp3-mac1 (Severe acute respiratory syndrome coronavirus 2, UniProt P0DTD1); experiment: biochemical; type: biochemical; conditions: SARS-CoV-2 nsp3 macrodomain TR-FRET single point, n=2
SARS-CoV-2 nsp3-mac1 [2] = biological target: T1, SARS-CoV-2 nsp3-mac1; experiment: biochemical; design: SARS-CoV-2 nsp3 macrodomain TR-FRET single point, per cent inhibition, n=2
[3] = read-out: perc_inhibition_mean, batch_name=ASAP-0000325-001
[4] = read-out: perc_inhibition_mean, batch_name=ASAP-0000326-001
[5] = read-out: perc_inhibition_mean, batch_name=ASAP-0000327-001
[6] = read-out: perc_inhibition_mean, batch_name=ASAP-0000328-001
[7] = read-out: perc_inhibition_mean, batch_name=ASAP-0000329-001
[8] = read-out: perc_inhibition_mean, batch_name=ASAP-0000330-001
[9] = read-out: perc_inhibition_mean, batch_name=ASAP-0000331-001
[10] = read-out: perc_inhibition_mean, batch_name=ASAP-0000332-001
[11] = read-out: perc_inhibition_mean, batch_name=ASAP-0000333-001
[12] = read-out: perc_inhibition_mean, batch_name=ASAP-0000334-001
[13] = read-out: perc_inhibition_mean, batch_name=ASAP-0000335-001
[14] = read-out: perc_inhibition_mean, batch_name=ASAP-0000336-001
[15] = read-out: perc_inhibition_mean, batch_name=ASAP-0000337-001
[16] = read-out: perc_inhibition_mean, batch_name=ASAP-0000338-001
[17] = read-out: perc_inhibition_mean, batch_name=ASAP-0000339-001
[18] = read-out: perc_inhibition_mean, batch_name=ASAP-0000340-001
[19] = read-out: perc_inhibition_mean, batch_name=ASAP-0000341-001
[20] = read-out: perc_inhibition_mean, batch_name=ASAP-0000342-001
[21] = read-out: perc_inhibition_mean, batch_name=ASAP-0000343-001
[22] = read-out: perc_inhibition_mean, batch_name=ASAP-0000344-001
[23] = read-out: perc_inhibition_mean, batch_name=ASAP-0000345-001
[24] = read-out: perc_inhibition_mean, batch_name=ASAP-0000346-001
[25] = read-out: perc_inhibition_mean, batch_name=ASAP-0000347-001
[26] = read-out: perc_inhibition_mean, batch_name=ASAP-0000348-001
[27] = read-out: perc_inhibition_mean, batch_name=ASAP-0000349-001

Structure (SMILES) | perc_inhibition_mean (SARS-CoV-2 nsp3-mac1 [1]; concentration 49.75 uM) [%] | perc_inhibition_mean (SARS-CoV-2 nsp3-mac1 [1]; concentration 99.5 uM) [%] | also measured
N[C@@H]1CCC[C@@H](C(=O)N(CCC(=O)N2CCNCC2)Cc2cccc(Cl)c2)C1 [ASAP-0000325] | -0.755 | -1.468 | inhibition at 49.75 µM (SARS-CoV-2 nsp3-mac1 [2]; [3]): -0.755%; inhibition at 99.5 µM (SARS-CoV-2 nsp3-mac1 [2]; [3]): -1.47%
O=C(CCN(Cc1cccc(Cl)c1)C(=O)C1(O)CCCC1)N1CCNCC1 [ASAP-0000326] | -1.213 | -1.781 | inhibition at 49.75 µM (SARS-CoV-2 nsp3-mac1 [2]; [4]): -1.21%; inhibition at 99.5 µM (SARS-CoV-2 nsp3-mac1 [2]; [4]): -1.78%
Cc1nccc(C(=O)N2CCC(c3ccn4ncc(C(=O)N5CCCCC5)c4c3)CC2)n1 [ASAP-0000327] | 16.537 | 27.369 | inhibition at 49.75 µM (SARS-CoV-2 nsp3-mac1 [2]; [5]): 16.5%; inhibition at 99.5 µM (SARS-CoV-2 nsp3-mac1 [2]; [5]): 27.4%
O=C(c1cn2ncccc2n1)N1CCC(c2ccn3ncc(C(=O)N4CCCCC4)c3c2)CC1 [ASAP-0000328] | 30.741 | 53.75 | inhibition at 49.75 µM (SARS-CoV-2 nsp3-mac1 [2]; [6]): 30.7%; inhibition at 99.5 µM (SARS-CoV-2 nsp3-mac1 [2]; [6]): 53.8%
O=C(c1cc(O)ccn1)N1CCC(c2ccn3ncc(C(=O)N4CCCCC4)c3c2)CC1 [ASAP-0000329] | 17.623 | 32.165 | inhibition at 49.75 µM (SARS-CoV-2 nsp3-mac1 [2]; [7]): 17.6%; inhibition at 99.5 µM (SARS-CoV-2 nsp3-mac1 [2]; [7]): 32.2%
Cc1n[nH]c(C)c1C(=O)N1CCC(c2ccn3ncc(C(=O)N4CCCCC4)c3c2)CC1 [ASAP-0000330] | 10.806 | 23.296 | inhibition at 49.75 µM (SARS-CoV-2 nsp3-mac1 [2]; [8]): 10.8%; inhibition at 99.5 µM (SARS-CoV-2 nsp3-mac1 [2]; [8]): 23.3%
Cn1cnc(C(=O)N(CCC(=O)N2CCNCC2)Cc2cccc(Cl)c2)n1 [ASAP-0000331] | -1.441 | -0.25 | inhibition at 49.75 µM (SARS-CoV-2 nsp3-mac1 [2]; [9]): -1.44%; inhibition at 99.5 µM (SARS-CoV-2 nsp3-mac1 [2]; [9]): -0.25%
Cc1cocc1C(=O)N(CCC(=O)N1CCNCC1)Cc1cccc(Cl)c1 [ASAP-0000332] | 1.398 | 0.51 | inhibition at 49.75 µM (SARS-CoV-2 nsp3-mac1 [2]; [10]): 1.4%; inhibition at 99.5 µM (SARS-CoV-2 nsp3-mac1 [2]; [10]): 0.51%
Cn1nncc1C(=O)N(CCC(=O)N1CCNCC1)Cc1cccc(Cl)c1 [ASAP-0000333] | 0.447 | -2.15 | inhibition at 49.75 µM (SARS-CoV-2 nsp3-mac1 [2]; [11]): 0.447%; inhibition at 99.5 µM (SARS-CoV-2 nsp3-mac1 [2]; [11]): -2.15%
O=C(CCN(Cc1cccc(Cl)c1)C(=O)c1cnon1)N1CCNCC1 [ASAP-0000334] | -2.442 | -1.082 | inhibition at 49.75 µM (SARS-CoV-2 nsp3-mac1 [2]; [12]): -2.44%; inhibition at 99.5 µM (SARS-CoV-2 nsp3-mac1 [2]; [12]): -1.08%
O=C(CCN(Cc1cccc(Cl)c1)C(=O)c1ccc(F)cn1)N1CCNCC1 [ASAP-0000335] | 6.758 | 6.737 | inhibition at 49.75 µM (SARS-CoV-2 nsp3-mac1 [2]; [13]): 6.76%; inhibition at 99.5 µM (SARS-CoV-2 nsp3-mac1 [2]; [13]): 6.74%
Nc1c(O)cccc1C(=O)N(CCC(=O)N1CCNCC1)Cc1cccc(Cl)c1 [ASAP-0000336] | -1.238 | 1.457 | inhibition at 49.75 µM (SARS-CoV-2 nsp3-mac1 [2]; [14]): -1.24%; inhibition at 99.5 µM (SARS-CoV-2 nsp3-mac1 [2]; [14]): 1.46%
O=C(NCC1(O)CCOCC1)c1cnn2ccc(C3CCN(C(=O)c4ccccc4)CC3)cc12 [ASAP-0000337] | -3.965 | -1.103 | inhibition at 49.75 µM (SARS-CoV-2 nsp3-mac1 [2]; [15]): -3.96%; inhibition at 99.5 µM (SARS-CoV-2 nsp3-mac1 [2]; [15]): -1.1%
CNC[C@@H]1CCCN1C(=O)c1cnn2ccc(C3CCN(C(=O)c4ccccc4)CC3)cc12 [ASAP-0000338] | -1.474 | -2.203 | inhibition at 49.75 µM (SARS-CoV-2 nsp3-mac1 [2]; [16]): -1.47%; inhibition at 99.5 µM (SARS-CoV-2 nsp3-mac1 [2]; [16]): -2.2%
CN(Cc1cn(C)nn1)C(=O)c1ccc(NC(=O)Nc2ccccc2)cc1 [ASAP-0000339] | 0.883 | 0.566 | inhibition at 49.75 µM (SARS-CoV-2 nsp3-mac1 [2]; [17]): 0.883%; inhibition at 99.5 µM (SARS-CoV-2 nsp3-mac1 [2]; [17]): 0.566%
Cn1cc(Br)c(CNC(=O)c2ccc(NC(=O)Nc3ccccc3)cc2)n1 [ASAP-0000340] | 4.308 | 1.196 | inhibition at 49.75 µM (SARS-CoV-2 nsp3-mac1 [2]; [18]): 4.31%; inhibition at 99.5 µM (SARS-CoV-2 nsp3-mac1 [2]; [18]): 1.2%
O=C(NCc1cn[nH]c1)c1cnn2ccc(C3CCN(C(=O)c4ccccc4)CC3)cc12 [ASAP-0000341] | -2.366 | -4.505 | inhibition at 49.75 µM (SARS-CoV-2 nsp3-mac1 [2]; [19]): -2.37%; inhibition at 99.5 µM (SARS-CoV-2 nsp3-mac1 [2]; [19]): -4.5%
O=C(Nc1ccccc1)Nc1ccc(C(=O)Nc2cnnc(Cl)c2)cc1 [ASAP-0000342] | -1.718 | -0.19 | inhibition at 49.75 µM (SARS-CoV-2 nsp3-mac1 [2]; [20]): -1.72%; inhibition at 99.5 µM (SARS-CoV-2 nsp3-mac1 [2]; [20]): -0.19%
O=C1NC[C@@H](C(=O)N(CCC(=O)N2CCNCC2)Cc2cccc(Cl)c2)O1 [ASAP-0000343] | 0.125 | 5.241 | inhibition at 49.75 µM (SARS-CoV-2 nsp3-mac1 [2]; [21]): 0.125%; inhibition at 99.5 µM (SARS-CoV-2 nsp3-mac1 [2]; [21]): 5.24%
O=C(CCN(Cc1cccc(Cl)c1)C(=O)[C@H]1C[C@H](O)C1)N1CCNCC1 [ASAP-0000344] | -2.133 | -3.766 | inhibition at 49.75 µM (SARS-CoV-2 nsp3-mac1 [2]; [22]): -2.13%; inhibition at 99.5 µM (SARS-CoV-2 nsp3-mac1 [2]; [22]): -3.77%
O=C(c1cnc[nH]1)N1CCC(c2ccn3ncc(C(=O)N4CCCCC4)c3c2)CC1 [ASAP-0000345] | 20.282 | 35.337 | inhibition at 49.75 µM (SARS-CoV-2 nsp3-mac1 [2]; [23]): 20.3%; inhibition at 99.5 µM (SARS-CoV-2 nsp3-mac1 [2]; [23]): 35.3%
C[C@H](NC(=O)c1cnn2ccc(C3CCN(C(=O)c4ccccc4)CC3)cc12)c1cccnc1 [ASAP-0000346] | -1.839 | -6.209 | inhibition at 49.75 µM (SARS-CoV-2 nsp3-mac1 [2]; [24]): -1.84%; inhibition at 99.5 µM (SARS-CoV-2 nsp3-mac1 [2]; [24]): -6.21%
O=C(N[C@@H]1CCCNC1=O)c1cnn2ccc(C3CCN(C(=O)c4ccccc4)CC3)cc12 [ASAP-0000347] | -3.161 | -4.869 | inhibition at 49.75 µM (SARS-CoV-2 nsp3-mac1 [2]; [25]): -3.16%; inhibition at 99.5 µM (SARS-CoV-2 nsp3-mac1 [2]; [25]): -4.87%
O=C(NCc1c[nH]nn1)c1cnn2ccc(C3CCN(C(=O)c4ccccc4)CC3)cc12 [ASAP-0000348] | -2.856 | 2.165 | inhibition at 49.75 µM (SARS-CoV-2 nsp3-mac1 [2]; [26]): -2.86%; inhibition at 99.5 µM (SARS-CoV-2 nsp3-mac1 [2]; [26]): 2.17%
CN1CCC[C@@H]1CNC(=O)c1cnn2ccc(C3CCN(C(=O)c4ccccc4)CC3)cc12 [ASAP-0000349] | -4.432 | 1.495 | inhibition at 49.75 µM (SARS-CoV-2 nsp3-mac1 [2]; [27]): -4.43%; inhibition at 99.5 µM (SARS-CoV-2 nsp3-mac1 [2]; [27]): 1.5%
